According to patent US20120244230A1, “POLYVALENT POLYNUCLEOTIDE NANOPARTICLE CONJUGATES AS DELIVERY VEHICLES FOR A CHEMOTHERAPEUTIC AGENT” (priority 2009, published 2012):

How the values were obtained:
[1] = Cyclic voltammetry, reduction potential of the Pt(IV) complex; format: physicochemical; conditions: Ag/AgCl reference, 25° C.
Method: The conjugate was designed to release a cytotoxic dose of cisplatin upon intracellular reduction. An ideal Pt(IV) complex should be sufficiently stable to travel through the blood stream until it reaches a tumor cell without decomposition. Once inside the cell, however, it should have an appropriate reduction potential such that it will be reduced and release its cytotoxic payload. Electrochemical measurements were made at 25° C. on a EG&G PAR Model 263 Potentiostat/Galvanostat with electrochemical analysis software 270 and a three electrode set-up comprising a glassy carbon working electrode, platinum wire auxiliary electrode and a Ag/AgCl reference electrode. The electrochemical data were uncorrected for junction potentials. KCl was used as a supporting electrolyte.

A549 cells = tested on: A549 cells
Method: (§1) Human cervical cancer HeLa, human osteosarcoma U2OS, human prostate PC3 cell lines were procured from the ATCC. A549 lung carcinoma cells were obtained from Prof. David E. Root, Whitehead Institute for Biomedical Research. HeLa, U2OS, and A549 Cells were grown at 37° C. in 5% CO2 in DMEM medium supplemented with 10% fetal bovine serum and 1% penicillin/streptomycin. PC3 cells were grown at 37° C. in 5% CO2 in RPMI supplemented with 10% fetal bovine serum and 1% penicillin/streptomycin. Cells were passed every 3 to 4 days and restarted from frozen stocks upon reaching pass number 20.
(§2) In order to investigate the efficacy of Pt-DNA-Au NPs, their ability to kill cancer cells of various origin was measured. […] Cells were seeded on a 96 well plate in 100 μL media and incubated for 24 hours. The cells were then treated with Pt-DNA-Au NP, 1, or cisplatin, separately at varying concentrations and incubated for 72 hours at 37° C. Medium was removed, cells were washed with PBS and then incubated with cell culture medium containing 20% 3-(4,5-dimethylthiazol-2-yl)-2,5-diphenyltetrazolium bromide (MTT). […] Cells were further incubated overnight and the absorbance was measured at 620 nm using a BioTek Synergy HT multi-detection microplate plate reader. […]

PC3 cells = assay: MTT cytotoxicity assay, PC3
Method: as §1, §2

U2OS cells = assay: MTT cytotoxicity assay, U2OS; format: cell-based, human; conditions: 72 hour treatment
Method: as §1, §2

Compound | reduction potential ([1]; pH 6.0, phosphate buffer-0.1 M KCl) [V] | reduction potential ([1]; pH 7.4, phosphate buffer-0.1 M KCl, extrapolated to 0.0 mV s-1 scan rate) [V] | cytotoxicity (in words) (A549 cells) | cytotoxicity (in words) (PC3 cells) | IC50 (U2OS cells) [µM] | IC50 (PC3 cells; PC3 cells, 72 hour treatment, MTT) [µM]
[NH2][Pt]([NH2])([OH])([Cl])([Cl])[O]C(=O)CCC(=O)O [Compound 1, c,c,t-[Pt(NH3)2Cl2(OH)(O2CCH2CH2CO2H)]] | −0.42 | −0.49 | did not show any significant killing | did not show any significant killing |  | 
N.N.[Cl][Pt][Cl] [cisplatin, cis-diamminedichloroplatinum(II), reference compound] |  |  |  |  | 5.1 | 4.6
